# Laboratory results from patent publication US11896594B2, “Palatable antiparasitic formulations” (Zoetis Services LLC, priority 2018, dated 2024).
# “And” between values parts separate entries of the source, which are not always exact repeats. Equal values may be shown once.
# Test system: D. immitis
# Experiment: Prevention of heartworm disease in dogs
# Format: in vivo
# Conditions: in vivo, po
compound,measurement,value
CO/N=C1\C[C@]2(C[C@@H]3C[C@@H](C/C=C(\C)C[C@@H](C)/C=C/C=C4\CO[C@@H]5[C@H](O)C(C)=C[C@@H](C(=O)O3)[C@]45O)O2)O[C@H](/C(C)=C/C(C)C)[C@H]1C [moxidectin],rate of efficacy against ML-resistant D. immitis isolate,98.8% and 99.5%
